Laboratory results published in patent US20240219394A1, “METHOD FOR MEASURING RESPONSE OF OLFACTORY RECEPTOR TO SUBSTANCE” (AJINOMOTO CO., INC., priority 2021, published 2024).

Test system: control cells (HEK293T cells transfected with the empty vector Rho-pME18S)
Assay: Luciferase assay: response of control cells to adenosine
Type: cell-based, human
Conditions: FIG. 1
Description: HEK293T cells expressing each of the 352 kinds of olfactory receptors were prepared according to the following procedure. […] The gene mixture and transfection reagent mixture were mixed, dispensed into each well of a poly-D-lysine-coated 384-well plate in a volume of 12.5 μL, and allowed to stand for 15 minutes in a clean bench. The HEK293T cells inoculated in 10-cm petri dishes on the previous day (2.5×10^6 cells/10 cm petri dish) were prepared at a density of 1.2×10^5 cells/mL, inoculated into each well of the 384-well plate in a volume of 25 μL, and cultured overnight in an incubator maintained at 37° C. and 5% C02. […]
The 352 olfactory receptors expressed in HEK293T cells couple with Golf to activate adenylate cyclase, thereby increasing the amount of intracellular cAMP. In this example, responses of the olfactory receptors to the test substances were measured by using a luciferase reporter gene assay, in which increase in intracellular cAMP amount is monitored as an increase in firefly luciferase-derived luminescence. […] In addition, luminescence value derived from Renilla luciferase was used as an internal standard to correct errors due to differences of gene transfer efficiency and cell number among the wells. […]

How did the “Response of control cells to adenosine (Luc/hRluc value, increase in cAMP)” value turn out when Nc1ncnc2c1ncn2[C@@H]1O[C@H](CO)[C@@H](O)[C@H]1O [adenosine] was run?
The value was “caused increase in cAMP”.
